Measured values reported in patent US11850266B2, “Cardiomyocytes and compositions and methods for producing the same” (President and Fellows of Harvard College, priority 2019, dated 2023).
“Also recorded” adds a separate entry of the source.

Experiments:
Format in all cases: cell-based, human
[1] = tested on: iPSC-derived cardiomyocytes; assay: Flow cytometry (TNNT2+ purity, MFI of TNNT2 and Kir2.1) and cell counts
Description: To prepare for differentiation, iPSCs were plated at a density between 20,000 to 80,000 cells (depending on the cell line) per well of a 12-well plate at four days prior to onset of differentiation. Cells were differentiated according to the protocol previously described by Lian et al. with some modifications (FIG. 1A) (1). Basal media was changed from StemFlex to RPMI/B27 on day 0 of differentiation. The GSK3 inhibitor, CHIR99021 (6 μM), was added for 48 hours from day 0 to day 2 of differentiation when cells were approximately 70-80% confluent. The Wnt antagonist IWP4 (5 μM) was added from days 2 to 4 of differentiation. Insulin (10 μg/ml) was added to the media starting on day 7 of differentiation, and media was changed every 2-3 days. In general, higher purity (TNNT2+) cardiomyocytes were observed when beating initiated prior to day 10 of differentiation, therefore only batches with onset of beating between days 7-10 of differentiation were included in this study. Beating cardiomyocytes were treated with Torin1 (200 nM, unless otherwise noted) or vehicle (0.02% dimethylsulfoxide (DMSO)) beginning at ˜2 days after onset of beating for 7 days (media changed with fresh Torin1 or DMSO every 2-3 days), unless otherwise noted. After Torin1 treatment, media was switched back to RPMI/B27/insulin and maintained with media change every 2-3 days until endpoint assay. In a few assays, fatty acids were added in the form of chemically defined lipids (Gibco) diluted 1:1000 simultaneous with Torin1 treatment. In some other assays, fetal bovine serum (10% FBS) was added to cells after completion of Torin treatment for 2-4 days.
Cells were dissociated and 5×10^5 to 1×10^6 cells were used per condition. For cell cycle analysis, 5×10^5 cells per condition were fixed in 70% cold ethanol for at least 2 hours to overnight at −20 degrees C. Cells were stained first with AlexaFluor 647-TNNT2 in Permeabilization Buffer (Thermo) then with Hoechst 33342 (2 μg/ml) and pyronin Y (4 μg/ml) for 20 minutes to distinguish between cells in G0, G1, and S-G2-M phases. For other stains, cells were fixed in eBioscience Intracellular Fixation buffer for 30 minutes followed washing twice in eBioscience Permeabilization Buffer and stained with the appropriate primary antibody (Table 2) in eBioscience FACS Staining buffer for 30-60 minutes. If a secondary antibody was used, cells were incubated with the appropriate secondary antibody (Table 2) for 30-60 minutes. The geometric mean fluorescence intensity (MFI) was quantified for TNNT2 and Kir2.1 antibodies. Data were acquired via a BD LSRII instrument and analyzed using FlowJo software.

[2] = tested on: iPSC-derived cardiomyocytes; assay: Calcium transients (Fluo-4 AM) analysis with Vala Kinetic Image Cytometer; settings: Torin1 treatment, FIG. 14
Description: To perform calcium transients analysis, 50 ul of 10 ug/ml Hoeschst 33258 and 5 μM Fluo-4 AM was added to each well of a 96 well plate and incubated for 10 minutes at 37 degrees. Media was replaced with RPMI without phenol red supplemented with 1:100 Oxyfluor and 10 uM sodium lactate. Isoproterenol (1 μM) was added to the media for isoproterenol experiments. Pacing protocol was 5 seconds delay without pacing followed by 5 seconds pacing at 1 Hz and 5 seconds imaging without pacing. Imaging was performed using the Vala Kinetic Image Cytometer at 30 fps with 33.30 ms exposure at 14.25 intensity. Stimulation pulse was 5 ms with 15V voltage. Data was collected by CyteSeer analysis program.

[3] = tested on: iPSC-derived cardiomyocytes; assay: Mitochondrial DNA to nuclear DNA ratio, MitoTracker and MitoProbe JC-1 assays
Description: The mitochondrial DNA to nuclear DNA ratio was quantified with qPCR. DNA was extracted from cardiomyocytes using the PureLink genomic DNA mini kit (Invitrogen). Primers for DNA to mitochondrial gene NADH dehydrogenase 1 (ND1) and nuclear gene lipoprotein lipase gene (LPL) were used (10).
Live iPSC-derived cardiomyocytes were stained using MitoTracker Green FM (Invitrogen) or the MitoProbe JC-1 assay kit (Invitrogen) according to the manufacturer's instructions. Cells were evaluated by flow cytometry and mean fluorescence intensity (MFI) of all live cells was quantified. For JC-1, the ratio of red to green MFI for vehicle versus Torin1-treated cells was quantified and normalized to control.

[4] = tested on: GCaMP-derived cardiomyocytes; assay: Cardiomyocyte purity (% TNNT2+) in 3D suspension culture; settings: Torin1 24 hours from day 9, assay day 10; ~70% TNNT2+ with the protocol
Description: Cardiomyocyte differentiation of iPSCs in suspension culture. The suspension differentiation protocol outlined by Kempf et al (79) will be used with some modifications. 30 ml and 125 ml disposable spinner flasks are set on a spinner plate capable of rotation speeds between 40-70 rpm placed in a 37° C., 5% CO2 incubator. Cells are seeded at 750,000 cells/ml and allowed to grow for 4 days in maintenance media until spheroids are approximately 300 μm in diameter, then differentiation is initiated with 7.5 μM CHIR99021. On day 2 of differentiation, CHIR is removed from the media and the Wnt pathway inhibitor IWP4 (5 μM) is added to the media, on day 4 of differentiation, IWP4 is removed from the media, and from day 7 onward, insulin is included in the media. […] Differentiation conditions will be optimized with all five cell lines (BJRiPS-A, DiPS 1016 SevA, GCaMP, Gibco, UCSD142i-86-1). Cardiomyocyte purity will be quantified with flow cytometry detecting TNNT2+ cells.
An example of a differentiation protocol for generating cardiomyocytes from iPSCs in suspension culture is detailed as follows. 30 ml and 125 ml disposable spinner flasks were used and were set on a spinner plate capable of rotation speeds between 40-70 rpm, where the spinner plate is placed in a 37° C., 5% CO2 incubator. […] Cardiomyocyte purity will be quantified with flow cytometry detecting TNNT2+ cells.

[5] = Torin1 200 nM 7 days, BJRiPS-CMs

CCC(=O)N1CCN(c2ccc(-n3c(=O)ccc4cnc5ccc(-c6cnc7ccccc7c6)cc5c43)cc2C(F)(F)F)CC1 [Torin1]
Torin1-induced increase in TNNT2 MFI after 10% FBS ([1]; 10% FBS 2 days after completion of Torin1, UCSD-CMs, FIG. 2I): reversed | TNNT2 MFI with shorter (5 days) or later (starting 10 days after initiation of beating) treatment ([1]; FIGS. 10, 11): beneficial effects on TNNT2 MFI | MFI of extracellular Kir2.1 by flow cytometry ([1]; Torin1 7 days, BJRiPS, FIG. 4B): significantly increased | TNNT2 MFI by flow cytometry ([1]; Torin1 7 days, Gibco iPS-CMs, FIG. 2C): dose-dependent increase | absolute numbers of cells per well ([1]; Torin1 from day 9, 12 well plate, BJRiPS-CMs, FIG. 1C): non-significant trend toward decreased absolute numbers of cells per well | purity of TNNT2+ cells ([1]; non-significant trend, Gibco iPS-CMs, FIG. 1D): increased purity of TNNT2+ cells | TNNT2 protein by mean fluorescence intensity (flow cytometry) ([1]; three cell lines (BJRiPS, GCaMP, Gibco), FIG. 18E): significant increase in protein expression of TNNT2 | calcium peak rise time, peak decay time and FWHM time [2]: significant decreases | MFI of MitoTracker by flow cytometry [3, 5]: decreased MFI | mitochondrial to nuclear DNA ratio [3, 5]: decreased | mitochondrial membrane polarization (MitoProbe JC-1 red:green ratio) ([3]; Torin1 1 week, FIG. 3E): significant increase in mitochondrial membrane polarization | % TNNT2+ cardiomyocyte purity in 3D suspension culture [4]: trend toward higher purity; also recorded: trend toward higher % TNNT2+ cells
